Assays:
P-gp (MDR1) = assay: MDCK-MDR1 assay (permeability / Pgp efflux); type: in vitro ADME; conditions: dog, Papp BA/Papp AB, Pgp substrate when ≥2
Procedure: The permeability of the test compounds was assessed in MDCK-MDR1 cells that were cultured to confluency (4-6 days) in a 96 transwell plate. Test compounds were diluted with the transport buffer (HBSS+1% BSA) to a concentration of 0.5 μM and applied to the apical or basolateral side of the cell monolayer. Permeation of the test compounds from A to B direction or B to A direction was determined in triplicate over a 60-minute incubation time at 37° C. and 5% CO2 with a relative humidity of 95%. Test compounds were quantified by LC-MS/MS analysis based on the peaks area ratios of analyte/IS in both the receiver and donor wells of the transwell plate.
The apparent permeability coefficient Papp (cm/s) was calculated using the equation: Papp=(dCr/dt)×Vr/(A×C0) Where dCr/dt is the cumulative concentration of compound in the receiver chamber as a function of time (μM/s); Vr is the solution volume in the receiver chamber (0.05 mL on the apical side; 0.25 mL on the basolateral side); A is the surface area for the transport, i.e. 0.0804 cm^2 for the area of the monolayer; C0 is the initial concentration in the donor chamber (μM).
Compounds are classified Pgp substrates when efflux ratio (Papp BA/Papp AB) is ≥2.

BACE1 = BACE1 (Homo sapiens (Human), UniProt P56817); assay: BACE1 efficacy assay (FRET-based, commercial BACE1 kit); type: biochemical; conditions: 10 μM test compound
Procedure: The efficacy assay was performed as a FRET-based assay using a commercially available BACE1 kit (Life Technologies, P2985). 2 μl test compound at 10 μM (final concentration) and 15 μl BACE1 enzyme from the kit (final concentration 3 nM) were preincubated for 15 minutes at room temperature before addition of 15 μl of substrate from the kit (250 nM final concentration) and incubated for additional 90 minutes at room temperature. The assay plate was subsequently read in a Pherastar (Ex540/Em590). The enzyme activity observed in presence of test compound were normalized to the enzyme activity observed in presence of buffer and 10 μM (final concentration) of the high affinity BACE1 reference inhibitor (S)-6-[3-Chloro-5-(5-prop-1-ynyl-pyridin-3-yl)-thiophen-2-yl]-2-imino-3,6-dimethyl-tetra-hydropyrimidin-4-one, respectively. The efficacy of the test compounds was evaluated at 10 μM (final concentration) and defined as the percent inhibition of the enzyme activity using the equation % inhibition=100%−normalized enzyme activity in percent.

Aβ40 = assay: Assessment of Aβ peptide levels in rat brain and plasma following BACE1 inhibition (Aβ40 ELISA); type: in vivo; conditions: 3 hours post dose, vs vehicle
Procedure: Assessment of Aβ Peptide Levels in Rat Brain and Plasma Following BACE1 Inhibition. Animals.
Young adult Male Sprague Dawley rats of approximately 250 g weight were purchased from Charles River and received 0-30 mg/kg of vehicle (10% HP betaCD+1M MeSO4, pH 2.5) or test compounds (dissolved in vehicle) only by oral gavage (p.o). The compounds are dosed at a volume of […]. Cohorts of 5-10 animals were established for each treatment condition.
At T=180 minutes after initial dosing the animals were stunned and decapitated with a guillotine. Trunk-blood was sampled in EDTA coated tubes after decapitation of the animal. The blood was centrifuged at 2200 G at 4° C. for 15 minutes and the plasma was collected and frozen at −80° C. The blood was aliquoted for Aβ ELISA and DMPK analysis. Immediately following sacrifice, the brain was extracted and split into 2 halves. The right hemibrains were snap frozen on dry ice and stored at −80° C. The left half was dissected; with the front forebrain taken for Aβ ELISA and the remainder used for DMPK analysis. These samples were also snap frozen on dry ice and stored at −80° C. until use for analysis.
The cortex samples were thawed slightly on wet ice before they were homogenized with a small volume dispersing instrument (T10 basic ULTRA-TURRAX®) which was set at speed 5 for approximately 5-7 sec. The tissue was processed in a 10 times volume of the weight, for example 100 mg of tissue was homogenized in 1000 μL of Homogenization buffer. Homogenization buffer: 50 ml Milli Q water+[…]+0.2% Diethylamin (DEA)+1 tablet of Complete Protease inhibitor cocktail+1 nM 4-(2-aminoethyl)benzenesulfonyl fluoride hydrochloride irreversible serine protease inhibitor (AEBSF).
After homogenization 450 μL aliquots of the samples are collected into a 1.5 ml Eppendorf tube and placed on wet ice, 0.5% NP-40 (50 ul) was added to all samples and then they were incubated on ice for 30 min. After which all samples were sonicated using an Ultrasonic homogenizer with 20 kHz homogeneous sound (SONOPLUS HD2070, Bandelin Electronic) 10 pulse set at 12-13% power to extract all the Aβ species. The samples were then centrifuged (Ole Dich 157 MPRF Micro centrifuge) at 20000 G for 20 minutes at 4° C. After centrifugation 285 μL of the supernatant was pipetted into 600 μL microtubes tubes and neutralized with 15 μL of 1M Tris-HCL buffer.
WAKO 294-62501 Human/Rat Abeta amyloid (40) kit was used for all ELISA analyses. 30 μL plasma samples or 30 μL of the cortex supernatants generated as described above were placed in 600 μL microtubes tubes on wet ice. To this 30 μL of 8M Urea (AppliChem A1049, 9025) are added to generate a 2-fold dilution. Both plasma and cortex supernatants are incubated on ice for 30 min. Standard rows were prepared from the standard peptide stock provided in the kit and standard diluent containing 1.6M Urea (200 μL 8M Urea+800 μL of standard diluent) and 0.8M Urea (400 μL 8M Urea+3600 μL Standard diluent). A serial 2-fold dilution of Aβ40 from 100 pmol/ml to 0 pmol/L was prepared for the assay.
After incubation with urea, all samples were further diluted by addition of 5 times standard diluent from the Kit. This was done by adding 240 μL Standard Diluent to 60 μL sample/urea mixture, which was then mixed well. 100 μL of each diluted sample was pipetted into designated wells of the ELISA plate in duplicates. The plate was then covered and incubated overnight at 4° C. The following day, the ELISA kit was brought to room temperature before use. The incubated plate was washed 5 times with the 20× washing solution diluted in Milli Q water. 100 μL HRP-conjugate was applied to each well, and the plate was covered and incubates at 4° C. for 1 hr. The wash was repeated again for 5 times. 100 μL 3,3′,5,5′-Tetramethylbenzidine (TMB) solution was applied to each well and the plate was covered and incubated in the dark at room temperature for 30 minutes. […]

BACE1, sequence (P56817 46-501): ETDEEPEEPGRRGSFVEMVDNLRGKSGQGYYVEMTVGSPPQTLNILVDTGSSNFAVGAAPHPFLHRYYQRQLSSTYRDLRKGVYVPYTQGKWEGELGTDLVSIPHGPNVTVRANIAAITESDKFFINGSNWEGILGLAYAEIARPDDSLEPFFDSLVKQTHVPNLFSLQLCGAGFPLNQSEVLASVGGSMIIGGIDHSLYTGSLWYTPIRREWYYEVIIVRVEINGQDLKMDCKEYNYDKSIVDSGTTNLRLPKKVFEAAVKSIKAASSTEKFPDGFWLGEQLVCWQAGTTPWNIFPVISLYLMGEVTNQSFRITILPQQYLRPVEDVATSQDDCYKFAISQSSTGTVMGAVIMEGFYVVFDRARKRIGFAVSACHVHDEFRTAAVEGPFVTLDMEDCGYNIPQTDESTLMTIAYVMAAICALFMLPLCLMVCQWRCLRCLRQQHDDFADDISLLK

Work on `COc1cnc(C(=O)Nc2cc(F)c(F)c([C@@]3(CF)N=C(N)CCC3(F)F)c2)cn1` [Compound 11, (S)-N-(3-(6-amino-3,3-difluoro-2-(fluoromethyl)-2,3,4,5-tetrahydropyridin-2-yl)-4,5-difluorophenyl)-5-methoxypyrazine-2-carboxamide] yielded an efflux ratio at 60 min, 0.5 μM (P-gp (MDR1)) of 0.77, an inhibition at 10 µM (BACE1) of 103% and an Aβ40 reduction (Aβ40; rat brain, 10 mg/kg p.o.) of 43%. The Aβ40 reduction (Aβ40; rat brain, 30 mg/kg p.o.) was 50%, the Aβ40 reduction (Aβ40; rat plasma, 10 mg/kg p.o.) was 31% and the Aβ40 reduction (Aβ40; rat plasma, 30 mg/kg p.o.) was 37%.
